In patent US12187701B2, “Taire family kinase inhibitors and uses thereof” (Dana-Farber Cancer Institute, Inc., priority 2018, dated 2025):
Read-outs that look alike come from different tables or passages of the source.

What was measured:
Cdk14/CycY = Cdk14/CycY (Homo sapiens (Human), UniProt O94921); assay: Lanthascreen Eu kinase binding assay for Cdk14/CycY with 30 minute pre-incubation; conditions: 30 minute pre-incubation of kinase with compound; read-out: IC50 CDK14 binding by Lanthascreen
Experimental: Lanthascreen Eu kinase binding assays were conducted for Cdk14/CycY largely as performed in the commercial assay service by Life Technologies, but included a 30 minute pre-incubation step of the kinase with candidate compounds to facilitate covalent bond formation.

HCT116 cells = assay: Antiproliferation assay, Cell Titer Glo, 72 hours; type: cell-based; conditions: Homo sapiens, HCT-116, 72 h
Outline: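 Luminescent CellTiter-Glo read-out after 72 h compound exposure (four-fold dilutions, 37 °C, 5% CO2) of HCT116 cells plated at 750 cells/well in McCoy's 5A + 10% FBS. Biological quadruplicates; IC50 from non-linear curve fitting.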

Cdk14 [1] = molecular target: T1, Cdk14 (Homo sapiens (Human), UniProt O94921); assay: Cdk14 33P kinase assay (Reaction Biology Corp.); type: biochemical
Target sequence in this assay (O94921 whole entry, looked up): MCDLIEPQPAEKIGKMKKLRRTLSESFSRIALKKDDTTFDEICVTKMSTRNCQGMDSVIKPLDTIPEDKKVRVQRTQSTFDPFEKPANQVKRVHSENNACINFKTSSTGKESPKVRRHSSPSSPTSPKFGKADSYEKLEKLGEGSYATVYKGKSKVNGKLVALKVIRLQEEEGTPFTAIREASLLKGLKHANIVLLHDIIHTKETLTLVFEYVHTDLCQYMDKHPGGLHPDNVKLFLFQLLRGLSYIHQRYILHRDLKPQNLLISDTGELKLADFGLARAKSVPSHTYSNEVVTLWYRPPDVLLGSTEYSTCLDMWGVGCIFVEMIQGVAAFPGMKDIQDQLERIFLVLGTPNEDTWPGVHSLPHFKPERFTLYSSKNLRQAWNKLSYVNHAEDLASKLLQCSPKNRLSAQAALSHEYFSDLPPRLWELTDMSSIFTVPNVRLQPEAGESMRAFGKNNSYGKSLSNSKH
Target sequence in this assay (Q8ND76 whole entry partner, looked up): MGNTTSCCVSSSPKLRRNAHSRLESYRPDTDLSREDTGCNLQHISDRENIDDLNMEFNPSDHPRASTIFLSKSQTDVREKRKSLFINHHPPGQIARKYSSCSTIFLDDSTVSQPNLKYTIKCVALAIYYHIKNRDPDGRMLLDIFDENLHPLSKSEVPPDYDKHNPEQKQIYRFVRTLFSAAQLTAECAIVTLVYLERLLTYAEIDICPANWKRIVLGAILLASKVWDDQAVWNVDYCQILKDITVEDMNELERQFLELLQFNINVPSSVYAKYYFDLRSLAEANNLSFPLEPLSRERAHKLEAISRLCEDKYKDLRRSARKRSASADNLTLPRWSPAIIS

Cdk14 [2] = molecular target: T1, Cdk14; assay: Cellular pull down with biotinylated probe, CDK14; type: cell-based; conditions: HEK293 cells overexpressing Cdk14-flag
Experimental: HEK293 cells overexpressing a Cdk14-flag fusion protein were treated with candidate compounds for 4 hours. Cells were washed with PBS, harvested and lysed in Pierce IP buffer with protease and phosphatase inhibitors (Roche). […] To enhance pulldown, lysates were incubated at room temperature for an additional 2 hours. […] Beads were then washed 3 times with Pierce IP buffer, then boiled at 95° C. for 5 minutes in 2× LDS+10% β-mercaptoethanol. Proteins of interest engaged by the biotinylated compound were then assessed using western blotting.
Target sequence in this assay (O94921 whole entry): as the sequence (O94921 whole entry, looked up) above

CDK16/CycY = CDK16/CycY (Homo sapiens (Human), UniProt Q00536); assay: Lanthascreen Eu kinase binding assay for CDK16/CycY
Sequence of CDK16/CycY (Q00536 whole entry): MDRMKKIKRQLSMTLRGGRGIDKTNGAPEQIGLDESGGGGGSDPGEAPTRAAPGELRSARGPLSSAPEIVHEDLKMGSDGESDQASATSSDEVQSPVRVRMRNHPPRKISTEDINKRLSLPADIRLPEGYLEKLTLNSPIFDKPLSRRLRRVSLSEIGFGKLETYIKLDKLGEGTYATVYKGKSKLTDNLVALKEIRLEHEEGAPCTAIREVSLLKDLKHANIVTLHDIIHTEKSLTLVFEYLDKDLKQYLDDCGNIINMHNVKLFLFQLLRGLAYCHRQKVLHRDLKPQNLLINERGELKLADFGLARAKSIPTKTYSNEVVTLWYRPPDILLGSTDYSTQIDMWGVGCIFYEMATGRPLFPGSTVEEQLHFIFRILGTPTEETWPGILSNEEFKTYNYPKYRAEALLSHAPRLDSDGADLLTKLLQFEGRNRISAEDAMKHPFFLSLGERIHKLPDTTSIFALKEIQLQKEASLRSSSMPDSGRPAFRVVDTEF
Sequence of CDK16/CycY (Q8ND76 whole entry partner): as the sequence (Q8ND76 whole entry partner, looked up) above
Experimental: Lanthascreen Eu kinase binding assays were conducted for CDK16/CycY at Life Technologies.

CDK2/CycA = CDK2/CycA (Homo sapiens (Human), UniProt P24941); assay: Z'LYTE kinase assay for CDK2/CycA at Km ATP; type: biochemical
Cdk14 [3] = molecular target: T1, Cdk14; assay: Protein labeling and mass spectrometry analysis of recombinant Cdk14; type: binding; conditions: 10-fold molar excess of compound, 2 hours, room temperature
Target sequence in this assay (O94921 whole entry): as the sequence (O94921 whole entry, looked up) above
Experimental: For each analysis, 5 μg protein was injected onto a self-packed reversed phase column ( 1/32″ O.D.×500 um I.D., 5 cm of POROS 50R2 resin). After desalting for four minutes, protein was eluted with an HPLC gradient (0-100% B in 4 minutes, A=0.2M acetic acid in water, B=0.2 M acetic acid in acetonitrile, flow rate=10 μL/min) into an LTQ ion trap mass spectrometer (ThermoFisher). […] After reconstituting in 50% acetonitrile, 1% formic acid, 100 mM ammonium acetate, peptides were analyzed by CE-MS using a ZipChip CE system and autosampler interfaced to a QExactive HF mass spectrometer.^7 (ThermoFisher Scientific, San Jose, CA). Peptide solution was loaded for 30 seconds and separation performed at 500 V/cm on an HR chip for 10 minutes with a background electrolyte consisting of 1% formic acid in 50% acetonitrile. Pressure assist was utilized and started at 1 minute. The mass spectrometer was operated in data dependent mode and subjected the 5 most abundant ions in each MS scan (60 k resolution, 1E6 target, lock mass enabled) to MS/MS (15 k resolution, 2E5 target, 100 ms max inject time). Dynamic exclusion was enabled with a repeat count of 1 and an exclusion time of 6 seconds. MS/MS data was extracted to .mgf using mulitplierz scripts^8,9 and searched against a forward-reverse human NCBI refseq database using Mascot version 2.2. […]

[4] = 4 hours treatment, some cells print Y or N instead of a concentration
[5] = read-out: IC50 CDK16 Lanthascreen binding
[6] = read-out: IC50 CDK2 Z′LYTE kinase assay

Sequence of Cdk14/CycY (O94921 whole entry): as the sequence (O94921 whole entry, looked up) above
Sequence of Cdk14/CycY (Q8ND76 whole entry partner): as the sequence (Q8ND76 whole entry partner, looked up) above

IC50 (Cdk14/CycY) | IC50 (HCT116 cells) | IC50 (Cdk14 [1]) | Cellular Potency by Pulldown (Cdk14 [2]; [4]) | IC50 (CDK16/CycY; [5]) | IC50 (CDK2/CycA; [6]) | Cellular Potency by Pulldown (Cdk14 [2]; cell prints LOW (>1 uM)) | Cellular Potency by Pulldown (Cdk14 [2]; cell prints LOW (>1 μM)) | CDK14 pulldown blocked (Cdk14 [2]; 4 hours treatment) | IC50 (CDK16/CycY; read-out: CDK16 IC50) | IC50 (CDK2/CycA; read-out: CDK2 IC50) | MS labeling of CDK14* (Cdk14 [3]) | SMILES
45 nM | 32 nM | 36.5 nM | 1000 nM | 11.4 nM | 3.4 nM |  |  |  |  |  |  | C=CC(=O)Nc1cccc(C(=O)N2CCC(NC(=O)c3n[nH]cc3NC(=O)c3c(Cl)cccc3Cl)CC2)c1 [FMF-03-196-1, N-(1-(3-acrylamidobenzoyl)piperidin-4-yl)-4-(2,6-dichlorobenzamido)-1H-pyrazole-3-carboxamide]
2.6 nM | 23 nM | 42.8 nM |  | 1.2 nM | 2.8 nM |  |  |  |  |  |  | CN(C)C/C=C/C(=O)Nc1ccc(S(=O)(=O)N2CCC(NC(=O)c3n[nH]cc3NC(=O)c3c(Cl)cccc3Cl)CC2)cc1 [FMF-03-197-2, (E)-4-(2,6-dichlorobenzamido)-N-(1-((4-(4-(dimethylamino)but-2-enamido)phenyl)sulfonyl)piperidin-4-yl)-1H-pyrazole-3-carboxamide]
14 nM | 2.6 nM | 786 nM |  | 18.2 nM | 24 nM |  |  |  |  |  |  | CN(C)C/C=C/C(=O)Nc1ccc(CN2CCC(NC(=O)c3n[nH]cc3NC(=O)c3c(Cl)cccc3Cl)CC2)cc1 [FMF-03-199-2, (E)-4-(2,6-dichlorobenzamido)-N-(1-(4-(4-(dimethylamino)but-2-enamido)benzyl)piperidin-4-yl)-1H-pyrazole-3-carboxamide]
17 nM | 37 nM | 342 nM | 1000 nM | 56.8 nM | 22.4 nM |  |  |  |  |  |  | CN(C)C/C=C/C(=O)Nc1cccc(C(=O)Nc2ccc(NC(=O)c3n[nH]cc3NC(=O)c3c(Cl)cccc3Cl)cc2)c1 [FMF-03-206-1, (E)-4-(2,6-dichlorobenzamido)-N-(4-(3-(4-(dimethylamino)but-2-enamido)benzamido)phenyl)-1H-pyrazole-3-carboxamide]
68 nM | 14 nM | 560 nM |  | 111 nM | 52.8 nM |  |  |  |  |  |  | CN(C)C/C=C/C(=O)Nc1ccc(C(=O)Nc2ccc(NC(=O)c3n[nH]cc3NC(=O)c3c(Cl)cccc3Cl)cc2)cc1 [FMF-04-012-2, (E)-4-(2,6-dichlorobenzamido)-N-(4-(4-(4-(dimethylamino)but-2-enamido)benzamido)phenyl)-1H-pyrazole-3-carboxamide]
122 nM | 7 nM | > 1000 nM |  |  | 7.5 nM |  |  |  |  |  |  | C=CC(=O)Nc1cccc(S(=O)(=O)N2CCC(NC(=O)c3n[nH]cc3NC(=O)c3c(F)cc(F)cc3F)CC2)c1 [FMF-04-095-1, N-(1-((3-acrylamidophenyl)sulfonyl)piperidin-4-yl)-4-(2,4,6-trifluorobenzamido)-1H-pyrazole-3-carboxamide]
10.2 nM | 90 nM | 380 nM | 500 nM | 5.2 nM | 3.7 nM |  |  |  |  |  |  | CN(C)C/C=C/C(=O)Nc1cccc(S(=O)(=O)N2CCC(NC(=O)c3n[nH]cc3NC(=O)c3c(F)cc(F)cc3F)CC2)c1 [FMF-04-095-2, (E)-N-(1-((3-(4-(dimethylamino)but-2-enamido)phenyl)sulfonyl)piperidin-4-yl)-4-(2,4,6-trifluorobenzamido)-1H-pyrazole-3-carboxamide]
> 1000 nM | 114 nM | 284 nM |  |  |  |  |  |  |  |  |  | C=CC(=O)Nc1cccc(S(=O)(=O)N2CCC(NC(=O)c3n[nH]cc3NC(=O)c3c(F)cccc3F)CC2)c1 [FMF-04-096-1, N-(1-((3-acrylamidophenyl)sulfonyl)piperidin-4-yl)-4-(2,6-difluorobenzamido)-1H-pyrazole-3-carboxamide]
3.4 nM | 157 nM | 268 nM | 250 nM | 2.6 nM | 2.6 nM |  |  |  |  |  |  | CN(C)C/C=C/C(=O)Nc1cccc(S(=O)(=O)N2CCC(NC(=O)c3n[nH]cc3NC(=O)c3c(F)cccc3F)CC2)c1 [FMF-04-096-2, (E)-4-(2,6-difluorobenzamido)-N-(1-((3-(4-(dimethylamino)but-2-enamido)phenyl)sulfonyl)piperidin-4-yl)-1H-pyrazole-3-carboxamide]
1.6 nM | 9 nM | 88 nM |  |  |  |  |  |  |  |  |  | C=CC(=O)Nc1cccc(S(=O)(=O)N2CCC(NC(=O)c3n[nH]cc3NC(=O)c3c(F)cccc3OC)CC2)c1 [FMF-04-097-1, N-(1-((3-acrylamidophenyl)sulfonyl)piperidin-4-yl)-4-(2-fluoro-6-methoxybenzamido)-1H-pyrazole-3-carboxamide]
> 1000 nM | 174 nM | 238 nM | 250 nM | 2.8 nM | 3.7 nM |  |  |  |  |  |  | COc1cccc(F)c1C(=O)Nc1c[nH]nc1C(=O)NC1CCN(S(=O)(=O)c2cccc(NC(=O)/C=C/CN(C)C)c2)CC1 [FMF-04-097-2, (E)-N-(1-((3-(4-(dimethylamino)but-2-enamido)phenyl)sulfonyl)piperidin-4-yl)-4-(2-fluoro-6-methoxybenzamido)-1H-pyrazole-3-carboxamide]
49 nM | 25 nM | 1050 nM | 500 nM | 46.6 nM | 20.6 nM |  |  |  |  |  |  | C=CC(=O)Nc1cccc(S(=O)(=O)N2CCC(NC(=O)c3n[nH]cc3NC(=O)c3c(Cl)cc(Cl)cc3Cl)CC2)c1 [FMF-04-159-1, N-(1-((3-acrylamidophenyl)sulfonyl)piperidin-4-yl)-4-(2,4,6-trichlorobenzamido)-1H-pyrazole-3-carboxamide]
64 nM | 7 nM | 1470 nM | 500 nM | 120 nM | 165 nM |  |  |  |  |  |  | C=CC(=O)Nc1cccc(CN2CCC(NC(=O)c3n[nH]cc3NC(=O)c3c(F)cccc3F)CC2)c1 [FMF-04-160-1, N-(1-(3-acrylamidobenzyl)piperidin-4-yl)-4-(2,6-difluorobenzamido)-1H-pyrazole-3-carboxamide]
11 nM | 9 nM | 557 nM | 100 nM | 12.8 nM | 50.2 nM |  |  |  |  |  |  | C=CC(=O)Nc1cccc(CN2CCC(NC(=O)c3n[nH]cc3NC(=O)c3c(Cl)cccc3OC)CC2)c1 [FMF-04-161-1, N-(1-(3-acrylamidobenzyl)piperidin-4-yl)-4-(2-chloro-6-methoxybenzamido)-1H-pyrazole-3-carboxamide]
6.4 nM | 23 nM |  | 100 nM | 1.8 nM | 3.5 nM |  |  |  |  |  |  | COc1ccc(Cl)c(C(=O)Nc2c[nH]nc2C(=O)NC2CCN(S(=O)(=O)c3cccc(NC(=O)/C=C/CN(C)C)c3)CC2)c1Cl [FMF-04-184-2, (E)-4-(2,6-dichloro-3-methoxybenzamido)-N-(1-((3-(4-(dimethylamino)but-2-enamido)phenyl)sulfonyl)piperidin-4-yl)-1H-pyrazole-3-carboxamide]
48 nM | > 10000 nM |  |  |  |  | LOW (>1 uM) |  |  |  |  |  | C=CC(=O)Nc1cccc(S(=O)(=O)N2CCC(NC(=O)c3n[nH]cc3NC(=O)c3c(OC)cc(OC)cc3OC)CC2)c1 [FMF-05-028-1, N-(1-((3-acrylamidophenyl)sulfonyl)piperidin-4-yl)-4-(2,4,6-trimethoxybenzamido)-1H-pyrazole-3-carboxamide]
108 nM | 4700 nM |  |  |  |  |  | LOW (>1 μM) |  |  |  |  | CN(C)C/C=C/C(=O)Nc1ccc(CNC(=O)c2n[nH]cc2NC(=O)c2c(Cl)cccc2Cl)cc1 [FMF-05-064-2, (E)-4-(2,6-dichlorobenzamido)-N-(4-(4-(dimethylamino)but-2-enamido)benzyl)-1H-pyrazole-3-carboxamide]
 | 8500 nM | > 1000 nM |  |  |  |  |  |  |  |  |  | C=CC(=O)Nc1cccc(CNC(=O)c2n[nH]cc2NC(=O)c2c(Cl)cccc2Cl)c1 [FMF-05-067-1, N-(3-acrylamidobenzyl)-4-(2,6-dichlorobenzamido)-1H-pyrazole-3-carboxamide]
 | 102 nM |  | 1000 nM | 2.91 nM | 2.95 nM |  |  | 1000 nM | 2.9 nM | 2.9 nM | 50% | CCOc1cccc(Cl)c1C(=O)Nc1c[nH]nc1C(=O)NC1CCN(S(=O)(=O)c2cccc(NC(=O)/C=C/CN(C)C)c2)CC1 [FMF-05-118-1, (E)-4-(2-chloro-6-ethoxybenzamido)-N-(1-((3-(4-(dimethylamino)but-2-enamido)phenyl)sulfonyl)piperidin-4-yl)-1H-pyrazole-3-carboxamide]
